These results are taken from ChEMBL document CHEMBL1201862, “PubChem BioAssay data set” (2004).

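All cell lines were grown in 96-well plates and treated with compound for 48 hours. GI50 marks 50% less growth.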 Activity calls are given as the source filed them. Rule as the data show it: active = GI50 up to about 1.1 µM and inactive = higher.

Among the test systems are A498; CAKI-1; DU-145; HCT-116; HCT-15; HT-29; LOX IMVI; MCF7; MDA-MB-231; MDA-MB-435; MDA-N; Malme-3M; RXF 393; SF-295; SF-539; SK-MEL-2; SK-OV-3; SNB-19; SR.
Common to all, as to experiment: NCI-60 cell line screen, 48 h

For `N#C/C(=C\Nc1ccccn1)C(=O)c1ccco1`, the GI50 with A498 is > 100 µM (inactive); in the assay on CAKI-1 it was > 100 µM (inactive); in the assay with DU-145, > 100 µM (inactive); with HCT-116 it was > 100 µM (inactive); in the assay with HCT-15, more than 100 µM; in the assay on HT-29, > 100 µM (inactive). The GI50 in the assay with LOX IMVI, in the assay with MCF7, with MDA-MB-231, in the assay with MDA-MB-435, in the assay on MDA-N and in the assay on Malme-3M was > 100 µM (inactive) in each case. Moreover, the GI50 with RXF 393, in the assay on SF-295, with SF-539, with SK-MEL-2, in the assay on SK-OV-3 and with SNB-19 was > 100 µM (inactive) each time. The GI50 in the assay on SR was > 100 µM (inactive).

As to `Cc1ccc2c(c1)c1ccc3c(c1n2C)C(=O)C=CC3=O`, the GI50 with A498 was 2.88 µM (inactive); in the assay on CAKI-1, 2.36 µM (inactive); in the assay on DU-145, 7.33 µM (inactive); with HCT-116, 1.51 µM (inactive); in the assay with HCT-15, 1.75 µM; in the assay with HT-29, > 10 µM (inactive). Also, the GI50 in the assay on LOX IMVI is 9.53 µM (inactive); in the assay on MCF7, 1.8 µM (inactive); in the assay on MDA-MB-231, 2.36 µM (inactive); in the assay on MDA-MB-435 it was 2.35 µM (inactive); with MDA-N, 1.73 µM (inactive); in the assay with Malme-3M it was 2 µM (inactive). For the same molecule, the GI50 is 1.97 µM (inactive) in the assay on RXF 393; > 10 µM (inactive) with SF-295; 2.32 µM (inactive) with SF-539; 7.48 µM (inactive) in the assay with SK-MEL-2; > 10 µM (inactive) in the assay with SK-OV-3; > 10 µM (inactive) in the assay with SNB-19. Moreover, the GI50 with SR was 0.27 µM (active).

Take `S=c1nc(Nc2ccccc2)c2c3c(sc2[nH]1)CCCC3`: the GI50 in the assay on A498 is > 100 µM (inactive); in the assay with CAKI-1, > 100 µM (inactive); in the assay on DU-145 it was > 100 µM (inactive); in the assay with HCT-116, > 100 µM (inactive); with HCT-15, more than 100 µM; in the assay with HT-29, > 100 µM (inactive). Besides, the GI50 in the assay on LOX IMVI, in the assay on MCF7, in the assay on MDA-MB-231, in the assay with MDA-MB-435, in the assay on MDA-N and with Malme-3M was > 100 µM (inactive) in each case. The GI50 with RXF 393 is > 100 µM (inactive); with SF-295, > 100 µM (inactive); in the assay with SK-MEL-2 it was > 100 µM (inactive); with SNB-19 it was > 100 µM (inactive); with SR, 8.67 µM (inactive).

As for `Clc1nss/c1=N/c1nonc1-c1ccccc1`, the GI50 is 71.6 µM (inactive) in the assay with A498; 17.1 µM (inactive) with CAKI-1; 22.7 µM (inactive) in the assay on DU-145; 34.9 µM (inactive) in the assay with HCT-116; more than 100 µM with HCT-15; 22 µM (inactive) with HT-29. The GI50 in the assay with LOX IMVI is 27.3 µM (inactive); in the assay with MCF7, 22.7 µM (inactive); in the assay with MDA-MB-231, 14 µM (inactive); in the assay with MDA-MB-435 it was 38.6 µM (inactive); in the assay with MDA-N, 20.1 µM (inactive); in the assay on Malme-3M, 28 µM (inactive). The GI50 was 29.2 µM (inactive) in the assay on RXF 393; 55.2 µM (inactive) in the assay with SF-295; 22.7 µM (inactive) in the assay on SF-539; 34.9 µM (inactive) in the assay with SK-MEL-2; > 100 µM (inactive) with SK-OV-3; 55.6 µM (inactive) in the assay on SNB-19. The GI50 with SR is 18.4 µM (inactive).

For `CC1CCCc2c(C#N)c(N)nc(-c3ccc(Cl)cc3)c21` (stereo unspecified), the GI50 in the assay with A498 is 68.4 µM (inactive); in the assay on CAKI-1, 68.7 µM (inactive); in the assay on DU-145, 33.7 µM (inactive); in the assay on HCT-116, 20.7 µM (inactive); in the assay on HCT-15, 11.7 µM; in the assay with HT-29 it was 6.75 µM (inactive). Also, the GI50 in the assay on LOX IMVI is 16.6 µM (inactive); in the assay on MCF7, 19.6 µM (inactive); in the assay with MDA-MB-231, 22.1 µM (inactive); with MDA-MB-435 it was 23.8 µM (inactive); in the assay with MDA-N, 31 µM (inactive); in the assay with Malme-3M, 18.7 µM (inactive). Further, the GI50 in the assay on RXF 393 is 6.87 µM (inactive); with SF-295, 18.3 µM (inactive); with SF-539, 14.5 µM (inactive); with SK-MEL-2, 15.6 µM (inactive); with SK-OV-3 it was 38.1 µM (inactive); in the assay with SNB-19, 39.4 µM (inactive). In addition, the GI50 in the assay with SR was 42.2 µM (inactive).

On to `O=c1c2c3c(sc2nc(S)n1-c1ccccc1)CCCc1ccc([N+](=O)[O-])cc1-3`, for which the GI50 in the assay with A498 is 41 µM (inactive); in the assay with CAKI-1 it was > 100 µM (inactive); with DU-145, 48.9 µM (inactive); in the assay with HCT-116, 39.1 µM (inactive); with HCT-15 it was 22 µM; with HT-29, 25.3 µM (inactive). Besides, the GI50 in the assay with LOX IMVI is 19.3 µM (inactive); with MCF7 it was 36.6 µM (inactive); with MDA-MB-231 it was > 100 µM (inactive); in the assay on MDA-MB-435 it was 49.5 µM (inactive); with MDA-N, 86.5 µM (inactive); with Malme-3M, 35.7 µM (inactive). Also, the GI50 with RXF 393 is 16.9 µM (inactive); in the assay with SF-295, 30.4 µM (inactive); in the assay with SK-MEL-2, > 100 µM (inactive); with SK-OV-3, > 100 µM (inactive); with SNB-19, 40.8 µM (inactive); in the assay with SR, 27.4 µM (inactive).

For the molecule `C[C@@]1(O)C2C3CC4C5C3C1[C@](O)(C42)[C@H]5Br` (stereo partly specified), the GI50 with A498 is > 100 µM (inactive); in the assay on CAKI-1 it was > 100 µM (inactive); with DU-145, > 100 µM (inactive); in the assay on HCT-116, > 100 µM (inactive); in the assay with HCT-15, more than 100 µM; in the assay with HT-29 it was > 100 µM (inactive). In addition, the GI50 in the assay on LOX IMVI, in the assay with MCF7, with MDA-MB-231, with MDA-MB-435, with MDA-N and with RXF 393 was > 100 µM (inactive) in each case. Moreover, the GI50 with SF-295, with SF-539, in the assay on SK-MEL-2, with SNB-19 and in the assay on SR was > 100 µM (inactive) throughout.

As for `CCCCCCCCCC[C@H](O)[C@H]1CC[C@@H]([C@@H](O)CC[C@H](O)[C@@H]2CCC(CCCCCCC[C@@H](O)CC3=C[C@H](C)OC3=O)O2)O1` (stereo partly specified), the GI50 was 3.16 µM (inactive) in the assay with A498; 3.22 µM (inactive) in the assay on CAKI-1; 3.6 µM (inactive) in the assay with DU-145; 1.16 µM (inactive) in the assay with HCT-116; 3.64 µM in the assay with HCT-15; 1.73 µM (inactive) in the assay with HT-29. Besides, the GI50 was 0.212 µM (active) in the assay on LOX IMVI; 1.49 µM (inactive) in the assay with MCF7; 2.62 µM (inactive) in the assay with MDA-MB-231; 1.33 µM (inactive) with MDA-MB-435; 2.43 µM (inactive) in the assay with MDA-N; 3.4 µM (inactive) with Malme-3M. Further, the GI50 in the assay with RXF 393 is 2.66 µM (inactive); in the assay on SF-295 it was 1.73 µM (inactive); in the assay with SF-539, 1.79 µM (inactive); in the assay with SK-MEL-2, 1.39 µM (inactive); with SNB-19, 1.61 µM (inactive); in the assay with SR, 2.05 µM (inactive).

Consider `CC(C)OC(=O)NNc1c(Cl)cc(Cl)cc1Cl`, for which the GI50 was 30.5 µM (inactive) in the assay with A498; 58.6 µM (inactive) with CAKI-1; > 100 µM (inactive) in the assay with DU-145; 80.9 µM (inactive) with HCT-116; 58.5 µM in the assay on HCT-15; > 100 µM (inactive) with HT-29. Further, the GI50 with LOX IMVI was 76.7 µM (inactive); with MCF7 it was 40.3 µM (inactive); in the assay on MDA-MB-231, > 100 µM (inactive); with MDA-MB-435, 82.8 µM (inactive); in the assay with MDA-N, 55 µM (inactive); with Malme-3M, 20.4 µM (inactive). In addition, the GI50 in the assay on RXF 393 is 26.2 µM (inactive); with SF-295 it was 77.6 µM (inactive); in the assay with SF-539, > 100 µM (inactive); with SK-MEL-2, 55.6 µM (inactive); in the assay with SK-OV-3 it was > 100 µM (inactive); in the assay on SNB-19, > 100 µM (inactive). Moreover, the GI50 in the assay on SR is 55.3 µM (inactive).

Consider `CN(C)C(=O)Oc1ccc(-c2cn3cc(NC(=O)c4ccccc4)ccc3n2)cc1`, for which the GI50 was > 100 µM (inactive) with A498; > 100 µM (inactive) in the assay with CAKI-1; > 100 µM (inactive) in the assay on DU-145; > 100 µM (inactive) in the assay with HCT-116; more than 100 µM in the assay with HCT-15; 87.3 µM (inactive) in the assay with HT-29. For the same molecule, the GI50 was 53 µM (inactive) in the assay with LOX IMVI; 31.7 µM (inactive) in the assay on MCF7; > 100 µM (inactive) in the assay on MDA-MB-231; 85.7 µM (inactive) with MDA-MB-435; > 100 µM (inactive) with MDA-N; > 100 µM (inactive) in the assay with RXF 393. Also, the GI50 is > 100 µM (inactive) in the assay on SF-295; > 100 µM (inactive) in the assay with SF-539; > 100 µM (inactive) in the assay on SK-MEL-2; > 100 µM (inactive) in the assay with SK-OV-3; 50.8 µM (inactive) in the assay on SNB-19; 29.3 µM (inactive) with SR.

`COC1CC(N)(c2ccccc2)C(O)C(C)O1` (stereo unspecified): the GI50 with A498 was > 100 µM (inactive); with CAKI-1 it was > 100 µM (inactive); with DU-145 it was > 100 µM (inactive); in the assay with HCT-116 it was > 100 µM (inactive); in the assay with HCT-15 it was more than 100 µM; with LOX IMVI, > 100 µM (inactive). Besides, the GI50 in the assay with MCF7, with MDA-MB-231, with MDA-MB-435, with MDA-N, with Malme-3M and with RXF 393 was > 100 µM (inactive) throughout. Also, the GI50 in the assay with SF-295, in the assay with SF-539, with SK-MEL-2, in the assay with SK-OV-3, in the assay on SNB-19 and in the assay with SR was > 100 µM (inactive) in each case.
